# Experimental data from patent US6379670B1, “Methods for treatment of multiple sclerosis using peptide analogs of human myelin basic protein” (Neurocrine Biosciences, Inc., priority 1994, dated 2002).
# Non-standard residues stand in square brackets, D forms with d. No end group written: not given here.
# Key:
# [1] = tested on: Dr2a restricted human T cell clone reactive to MBP; assay: Human T cell proliferation, Dr2a restricted clone; assay type: cell-based
# Procedure: Human T cells reactive to MBP (83-99) may alternatively be used to measure the ability of the peptide analog to inhibit proliferation of T cells induced by native MBP (83-99) peptide. MBP-specific T cells may be obtained as previously described by Martin et al., J. Immunol. 148:1359-1366, 1992. Briefly, T cell lines are established by culture of human T cells with irradiated, DR-matched peripheral blood cells in MEM supplemented with 2 mM L-glutamine, 50 μg/ml gentamicin, penicillin and streptomycin, 100 U/ml rIL-2, and 10% human AB negative serum. Proliferation of these T cell lines is stimulated by culturing a clone with varying concentration (1.1-30 μM) of native […] peptide, 50 μM of the peptide analog or SWM peptide, in the presence of irradiated, DR matched peripheral blood cells, following incubation for approximately 60 hours, the cells are pulsed with ^3H-thymidine for 12 hours and harvested. The amount of incorporated ^3H-thymidine is measured.
# The ability of the peptide analogs NBI-5719, 5748, 5765, 5788 and 5789 (SEQ ID NOs: 4-8 respectively) to affect human T cell proliferation was assessed. […] The amount of tritiated thymidine incorporated was measured, and the data represented as the mean plus or minus the standard error of the mean of replicate samples.
# The potency of NBI-5788 (SEQ ID NO:7) was then determined by varying concentrations of the APL. […]
# [2] = tested on: Dr2b-restricted T cell clone 5F6; assay: Cytokine production (TNF-α, IFN-γ) by T cell clone 5F6, EIA; assay type: cell-based, human
# Procedure: As discussed in detail below, the production of cytokines may also be assessed. In particular, TNF-α and IFN-γ production are especially interesting. These pro-inflammatory cytokines are thought to play a role in the pathogenesis of the disease. Briefly, T cell clone is incubated in the presence of stimulating MBP peptide and peptide analog or control peptide (SWM) or medium only. After a 24 hour incubation, the levels of TNF-α and IFN-γ in the supernatant are determined using commercially available EIA kits (Endogen, Cambridge, Mass.).
# The ability of the peptide analog ligand to influence cytokine production was next measured. The Dr2b-restricted T cell clone 5F6 was incubated in the presence of 3 μM MBP peptide with either 10 μM of NBI-5788 (SEQ ID NO:7) or SWM or medium only. As a control, cells were cultured in the presence of medium alone. After 24 hours, supernatants were removed and the levels of tumor necrosis factor alpha (TNF-α) and interferon-y (IFN-γ) determined using commercially available EIA kits.
# [3] = tested on: draining lymph node T cells of SJL mice; assay: Induction of Th2 response in SJL mice, ex vivo lymph node cell proliferation; set-up: species or system mouse
# Procedure: SJL/J female mice (3 per group) were injected weekly on days 0, 7, 14 and 21 subcutaneously with 20 mg/kg of NBI-5788 in the flanks. On day 28, the mice were sacrificed, the draining lymph node removed, a single cell suspension was made and the ability of the cells to proliferate in response to 25 μM NBI-5788 was determined. The data, shown in FIG. 28, represent the mean of triplicate wells.
substance,measurement,setting,value
"MBP(83-99) (83E>a, 84N>K, 89F>L, and 91K>A) ([dA]KPVVHLFANIVTPRTP) [NBI-5788]",inhibition of proliferative response of Dr2a restricted T cell clone to MBP(83-99),"[1]; 50 μM peptide, MBP(83-99) 1.1-30 μM, FIGS. 13 and 14",inhibited the ability of a human Dr2a restricted T cell clone to respond
same,"inhibition of response of Dr2a T cell line to MBP(83-99), potency","[1]; APL 2, 10 or 50 μM, effect at both 10 and 50 μM, SWM 50 μM, FIG. 15",significantly altered the ability of the Dr2a T cell line to respond to MBP(83-99)
same,effect on MBP-stimulated production of TNF-α and IFN-γ,"[2]; 10 μM peptide with 3 μM MBP peptide, to approximately levels with medium only",dramatically inhibited the production of both pro-inflammatory cytokines
same,stimulation of cytokine production over background by the analog itself,[2]; even at concentrations of 50 μM (data not shown),None
same,immune response induced by repeated dosing,"[3]; 20 mg/kg subcutaneously on days 0, 7, 14 and 21, ex vivo proliferation to 25 μM NBI-5788, FIG. 28",induces a Th2 response
same,response with successive weekly doses,[3]; four doses at weekly intervals,stronger response after each subsequent dose
